ChEMBL document CHEMBL5131461, “Discovery of 4-(phenoxymethyl)-1H-1,2,3-triazole derivatives as novel xanthine oxidase inhibitors” (Bioorg Med Chem Lett, 2022)
The source made the active and inactive calls. The rule behind the calls is not given here.

Test system: Rattus norvegicus
Assay: In vivo Hypouricemic activity against potassium oxonate-induced hyperuricemia rat model assessed as reduction in serum uric acid production at 20 mg/kg, po measured after 2 hrs
Format: functional, organism-based
Details: not given

Row | Compound | Activity
1 | COc1cccc(Cn2cc(COc3ccc(F)cc3C=O)nn2)c1 | Active

Target: T1, Xanthine dehydrogenase/oxidase (Bos taurus, UniProt P80457)
T1 sequence (P80457 whole entry): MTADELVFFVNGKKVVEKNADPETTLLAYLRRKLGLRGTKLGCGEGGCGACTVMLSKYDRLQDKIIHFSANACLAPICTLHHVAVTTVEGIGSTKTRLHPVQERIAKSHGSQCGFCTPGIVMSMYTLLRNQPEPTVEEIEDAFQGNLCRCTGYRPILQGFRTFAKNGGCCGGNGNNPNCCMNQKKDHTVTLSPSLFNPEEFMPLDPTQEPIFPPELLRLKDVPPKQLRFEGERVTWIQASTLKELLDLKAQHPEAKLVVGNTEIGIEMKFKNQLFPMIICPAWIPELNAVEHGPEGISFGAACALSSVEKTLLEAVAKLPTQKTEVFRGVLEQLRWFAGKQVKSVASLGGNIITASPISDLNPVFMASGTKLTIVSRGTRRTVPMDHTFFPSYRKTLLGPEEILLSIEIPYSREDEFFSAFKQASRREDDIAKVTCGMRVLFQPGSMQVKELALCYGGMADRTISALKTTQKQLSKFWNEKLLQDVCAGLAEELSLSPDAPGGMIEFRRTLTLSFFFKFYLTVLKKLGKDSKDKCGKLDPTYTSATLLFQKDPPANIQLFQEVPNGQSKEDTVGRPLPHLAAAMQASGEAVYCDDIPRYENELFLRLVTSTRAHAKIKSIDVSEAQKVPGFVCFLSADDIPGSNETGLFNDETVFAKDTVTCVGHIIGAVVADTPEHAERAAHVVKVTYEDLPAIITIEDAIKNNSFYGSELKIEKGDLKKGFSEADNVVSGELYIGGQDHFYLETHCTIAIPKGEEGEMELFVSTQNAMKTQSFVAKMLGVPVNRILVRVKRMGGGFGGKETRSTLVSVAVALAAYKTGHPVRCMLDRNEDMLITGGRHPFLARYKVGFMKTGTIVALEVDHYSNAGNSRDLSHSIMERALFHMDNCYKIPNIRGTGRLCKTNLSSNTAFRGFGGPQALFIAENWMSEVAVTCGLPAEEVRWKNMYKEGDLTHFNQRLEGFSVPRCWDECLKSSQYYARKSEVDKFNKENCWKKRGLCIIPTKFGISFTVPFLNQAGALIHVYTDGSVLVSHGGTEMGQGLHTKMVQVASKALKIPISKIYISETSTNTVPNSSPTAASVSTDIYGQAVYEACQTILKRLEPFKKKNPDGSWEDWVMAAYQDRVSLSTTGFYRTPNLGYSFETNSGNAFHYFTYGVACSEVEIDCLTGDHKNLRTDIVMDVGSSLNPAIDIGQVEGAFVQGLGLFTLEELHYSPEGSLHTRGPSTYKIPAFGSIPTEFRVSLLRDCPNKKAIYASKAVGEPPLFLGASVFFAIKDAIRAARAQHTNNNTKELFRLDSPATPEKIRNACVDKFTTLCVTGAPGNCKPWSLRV
Assay: Potency index, ratio of allopurinol IC50 to test compound IC50 for bovine XO using xanthine as substrate by spectrophotometry
Details: cattle

Row | Compound | Ratio IC50
2 | COc1cccc(Cn2cc(COc3ccc(F)cc3C=O)nn2)c1 | 14

Test system: Rattus norvegicus
Assay: In vivo Hypouricemic activity against potassium oxonate-induced hyperuricemia rat model assessed as reduction in serum uric acid production at 8 mg/kg, po measured after 2 hrs
Format: functional, organism-based
Details: not given

Row | Compound | Activity
3 | Oc1ncnc2[nH]ncc12 | Active

Test system: Rattus norvegicus
Assay: In vivo Hypouricemic activity against potassium oxonate-induced hyperuricemia rat model assessed as reduction in AUC of serum uric acid level at 20 mg/kg, po measured after 0.5 to 8 hrs
Format: functional, organism-based
Details: time 0.5-8 hrs

Row | Compound | Activity
4 | COc1cccc(Cn2cc(COc3ccc(F)cc3C=O)nn2)c1 | Active

Target: T1, Xanthine dehydrogenase/oxidase
Assay: Inhibition of bovine XO assessed as inhibition of uric acid formation using xanthine as substrate at 25 uM preincubated with enzyme for 10 mins followed by substrate addition and measured for 2 mins by spectrophotometry
Details: cattle, time 12 min

Row | Compound | inhibition at 25 µM [%]
5 | CC(C)CCn1cc(COc2cc(F)ccc2C=O)nn1 | < 50
6 | CC(C)n1cc(COc2ccccc2C=O)nn1 | < 50
7 | O=Cc1ccccc1OCc1cn(Cc2ccccc2)nn1 | < 50
8 | COc1ccccc1Cn1cc(COc2ccccc2[N+](=O)[O-])nn1 | < 50
9 | CCCn1cc(COc2ccccc2C=O)nn1 | < 50
10 | COc1cccc(Cn2cc(COc3cc(F)ccc3C=O)nn2)c1 | < 50
11 | CCn1cc(COc2ccccc2C=O)nn1 | < 50
12 | COc1ccccc1Cn1cc(COc2ccccc2C#N)nn1 | < 50
13 | COc1cccc(Cn2cc(COc3ccccc3C#N)nn2)c1 | < 50
14 | COc1cccc(Cn2cc(COc3ccccc3[N+](=O)[O-])nn2)c1 | < 50

Target: T1, Xanthine dehydrogenase/oxidase
Assay: Inhibition of bovine XO assessed as inhibition of uric acid formation using xanthine as substrate preincubated with enzyme for 10 mins followed by substrate addition and measured for 2 mins by spectrophotometry
Details: not given

Row | Compound | IC50 [nM]
15 | Cc1cccc(Cn2cc(COc3ccc(F)cc3C=O)nn2)c1 | 1180
16 | CC(C)CCn1cc(COc2ccccc2C=O)nn1 | 16000
17 | CCC(C)n1cc(COc2ccc(F)cc2C=O)nn1 (configuration not stated) | 9360
18 | N#Cc1ccccc1Cn1cc(COc2ccc(F)cc2C=O)nn1 | 4150
19 | CCCCCn1cc(COc2ccc(F)cc2C=O)nn1 | 2990
20 | N#Cc1cccc(Cn2cc(COc3ccc(F)cc3C=O)nn2)c1 | 2540
21 | CCn1cc(COc2ccc(F)cc2C=O)nn1 | 3460
22 | CCCCCn1cc(COc2ccccc2C=O)nn1 | 18100
23 | CCC(C)n1cc(COc2ccccc2C=O)nn1 (configuration not stated) | 21800
24 | O=Cc1ccccc1OCc1cn(Cc2ccccc2)nn1 | > 25000
25 | CCCCn1cc(COc2ccc(F)cc2C=O)nn1 | 2490
26 | COc1ccccc1Cn1cc(COc2ccccc2C=O)nn1 | 1450
27 | COc1cccc(Cn2cc(COc3ccc(F)cc3C=O)nn2)c1 | 700
28 | Cc1ccccc1Cn1cc(COc2ccccc2C=O)nn1 | 1630
29 | CCCCn1cc(COc2cc(F)ccc2C=O)nn1 | 3590
30 | Cc1ccccc1Cn1cc(COc2ccc(F)cc2C=O)nn1 | 4010
31 | Cc1cccc(Cn2cc(COc3ccccc3C=O)nn2)c1 | 1110
32 | COc1ccccc1Cn1cc(COc2cc(F)ccc2C=O)nn1 | 2070
33 | COc1cccc(Cn2cc(COc3ccccc3C=O)nn2)c1 | 1020
34 | N#Cc1cccc(Cn2cc(COc3ccccc3C=O)nn2)c1 | 1710
35 | CCCCn1cc(COc2ccccc2C=O)nn1 | 13500
36 | CC(C)Cn1cc(COc2ccccc2C=O)nn1 | 21100
37 | COc1ccccc1Cn1cc(COc2ccc(F)cc2C=O)nn1 | 940
38 | CC(C)CCn1cc(COc2ccc(F)cc2C=O)nn1 | 2120
39 | CCCn1cc(COc2ccc(F)cc2C=O)nn1 | 5240
40 | N#Cc1ccccc1Cn1cc(COc2ccccc2C=O)nn1 | 2220
41 | CC(C)Cn1cc(COc2ccc(F)cc2C=O)nn1 | 14300
42 | CC(C)n1cc(COc2ccc(F)cc2C=O)nn1 | 2560
